In patent publication US20260227407A1, “SYNTHETIC GLYCOPEPTIDES AND DERIVATIVES FOR THE EARLY-STAGE DETECTION OF CANCER BIOMARKERS IN MUC1-POSITIVE TUMORS” (FUNDACIÓN RIOJA SALUD, priority 2023, published 2026):

Tests used:
5E5 (anti-MUC1) antibody = experiment: Antigen-antibody binding studies by surface plasmon resonance (SPR); set-up: species or system mouse; conditions: for Kd: SPR, 5E5 immobilised on CM5 chip, 20° C. and 7.5 pH
Procedure: Surface plasmon resonance (SPR) experiments were performed with a Biacore X-100 apparatus (Biacore, GE) in HBS-EP buffer solution at 7.5 pH (10 mM Hepes, 150 mM NaCl, 3 mM EDTA, with 2% DMSO and 0.05% Tween X100) at […]. This is the running buffer. The 5E5 antibody (from Abcam) was immobilised on a CM5 sensor chip (Biacore, GE) following the standard amine coupling method.^30 Briefly, the carboxymethyl dextran surface of flow cell 2 was activated by a 7 min injection of a 1:1 ratio of a 0.4 M aqueous solution of 1-ethyl-3-(3-dimethylaminopropyl) carbodiimide (EDC) and 0.1 M sulfo-N-hydroxysuccinimide. As such, the antibody was bound to the surface using various dilutions in 10 mM sodium acetate, 4.0. pH during a 7 min injection. […] The flow cell 1 was used as a reference and treated as the flow cell 2 (amine coupling method) without protein. Before use, 50 mM stock solutions of peptide ligand were diluted to the final concentration in the running buffer. Therefore, a series of different compounds were injected into the sensor chip at a flow rate of 30 μl/min for a period of 1 min followed by a dissociation period of 1 min. No regeneration was required. FIGS. 2A and 2B show the response-concentration curves obtained for the binding of glycopeptide 21 and 24, respectively, towards the 5E5 (anti-MUC1) antibody at 20° C. in SPR experiments.
The sensogram data were obtained in duplicate and processed with the Biae Evaluation X100 software (Biacore, GE). Experimental data from the affinity measurements were fitted to a specific two-site binding model using Prism software.

[1] = target: Glycopeptide 24 (…(GalNCOEt)APPA); experiment: SPR, ratio of the KD values of glycopeptides 21 and 24 for 5E5
[2] = target: Glycopeptide 21 (…(GalNAc)APPA); experiment: SPR (Biacore X-100), 5E5 immobilised on CM5 chip, glycopeptide as analyte, steady-state fit
[3] = target: Glycopeptide 24 (…(GalNCOEt)APPA); experiment: as above

Substance | Kd (5E5 (anti-MUC1) antibody) | fold higher affinity than the natural peptide (21) [1] | Kd [2] | Kd [3] | affinity relative to the natural glycopeptide (21) (5E5 (anti-MUC1) antibody; anti-MUC1 antibody 5E5, SPR)
GGGGPAPGST(GalNAc)APPA [Glycopeptide 21, reference compound] | 540 nM | – | – | – | –
mouse monoclonal anti-MUC1 5E5 antibody | – | 6.5 times | 540 nM | 83 nM | –
GGGGPAPGST(GalNCOEt)APPA [Glycopeptide 24] | 83 nM | – | – | – | 6.5 times
